# Source: patent US11098040B2, “Compounds and methods of use” (Ferro Therapeutics, Inc., priority 2018, dated 2021)
# Columns and labels:
# AsPC-1 = assay: Cell viability assay (CellTiter Glo), pancreatic adenocarcinoma AsPC-1; type: cell-based; conditions: Homo sapiens, ASPC1; pancreatic adenocarcinoma, ascites, 96 hours, CellTiter Glo; read-out: IC50 AsPC-1
# Method: (§1) Cell viability assay was performed to assess the potency of the compounds in human cancer cell lines KP4 (pancreatic ductal adenocarcinoma), MiaPaCa-2 (pancreatic carcinoma), AsPC-1 (pancreatic adenocarcinoma, ascites), 143B (osteosarcoma), and SJSA-1 (osteosarcoma). Selected compounds were also assayed in a human breast epithelial cell line MCF-10A, a nontumorigenic cell line as a control to assess differential activity. Cells at a density of 500-5,000 cells/well were seeded in 96-well plates and incubated at 37° C. overnight. A series of 9 different concentrations of compound stocks (500×) were created by 3-fold serial dilution in DMSO. These compounds were further diluted in culture media and then added to cells so that the final DMSO concentration was equal to 0.25% or less. After 96 hours of incubation, 50 μL of CellTiter Glo reagent (Promega) was added to each well and luminescence was measured after 10 minutes using EnVision (PerkinElmer). Compounds titrated from top concentration of up to 30 μM. The select compounds were tested initially from 30 μM as the top concentration in duplicates (range of 4.6 nM-30 μM). […] Luminescence from cells treated with DMSO alone was set as Max and % of inhibition was calculated as follows: Inhibition %=(Max-Sample value)/Max*100. Data was analyzed using XL-fit software (ID Business Solutions Ltd.). IC50, relative IC50, or % of top inhibition was calculated.
# (§2) The results of the assay in the pancreatic cell lines are given in Table 15a for PANC1, Table 15b for MiaPaCa-2, and Table 15c for AsPC-1.
# MCF-10A = assay: Cell viability assay (CellTiter Glo), non-tumorigenic breast epithelial cell line MCF-10A; type: cell-based; conditions: Homo sapiens, 96 hours
# Outline: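 MCF-10A cells (500-5,000/well) treated 96 h at 37° C with 9-point 3-fold dilutions from up to 30 μM, ≤0.25% DMSO, in duplicate. Viability by CellTiter Glo luminescence; % inhibition versus DMSO-only wells gave IC50, relative IC50 or % top inhibition. Paclitaxel positive control.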
# SJSA-1 = assay: Cell viability assay (CellTiter Glo), osteosarcoma SJSA-1; type: cell-based; conditions: Homo sapiens, 96 hours
# Method: as §1
# (§3) The results of the assay in sarcoma cell lines are given in Table 21a for HT-1080 luc2 (fibrosarcoma expressing a luciferase gene), Table 21b for 143B (osteosarcoma), and Table 21c for SJSA-1 (osteosarcoma).
# 143B = assay: Cell viability assay (CellTiter Glo), osteosarcoma 143B; type: cell-based; conditions: Homo sapiens, 96 h, osteosarcoma, 96 hours, CellTiter Glo, read-out: IC50 143B
# Method: as §1, §3
# MiaPaCa-2 = assay: Cell viability assay (CellTiter Glo), pancreatic carcinoma MiaPaCa-2; type: cell-based; conditions: Homo sapiens, MIA PaCa-2; pancreatic carcinoma, 96 hours, CellTiter Glo; read-out: IC50 MiaPaCa-2
# Method: as §1, §2
# [1] = Whole blood stability, mouse; type: in vitro ADME
# Text: (§4) The results of the assay on stability in blood and IC50 values for pancreatic cancer cell line KP4 are given below in Table 24.
# [2] = Whole blood stability, human; type: in vitro ADME
# Text: as §4
# KP4 = assay: Cell viability assay (CellTiter Glo), pancreatic ductal adenocarcinoma KP4; type: cell-based, human; conditions: Homo sapiens, KP-4, 96 h, pancreatic cancer cell line KP4, 96 hours, CellTiter Glo; read-out: IC50 μM KP4
# Outline: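 KP4 cells seeded at 1,000–10,000 per well, treated 96 h with 9-point 3-fold dilutions from 30 μM top (4.6 nM–30 μM, duplicates; ≤0.25% DMSO). Viability by CellTiter Glo luminescence; % inhibition relative to DMSO-only wells, giving IC50, relative IC50 or % top inhibition.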
SMILES,IC50 (AsPC-1) [nM],IC50 (MCF-10A) [nM],IC50 (SJSA-1) [nM],IC50 (143B) [nM],IC50 (MiaPaCa-2) [nM],further results
COC(=O)[C@H]1Cc2c([nH]c3ccccc23)[C@H](c2ccc(S(=O)(=O)NCC3CC3)cc2)N1C(=O)CCl [Example 82],61,3740,,,,
COC(=O)[C@H]1Cc2c([nH]c3ccccc23)[C@H](c2ccc(C(=O)OCC3CCCC3)cc2)N1C(=O)CCl [Example 86],21,330,,,,
COC(=O)[C@H]1Cc2c([nH]c3ccccc23)[C@H](c2ccc(OC(=O)C(C)(C)C)cc2)N1C(=O)CCl [Example 13],,3050,157,109,131,
[2H]C([2H])(Cl)C(=O)N1[C@@H](c2ccc(C(=O)OC(C)(C)C)cc2)c2[nH]c3ccccc3c2C[C@@H]1C(=O)OC [BZ],30,590,,,,Whole Blood Stability % Remaining at 37° C. Mouse ([1]; 0 min): 100.0%; Whole Blood Stability % Remaining at 37° C. Mouse ([1]; 30 min): 65.4%; Whole Blood Stability % Remaining at 37° C. Mouse ([1]; 60 min): 30.7%; Whole Blood Stability % Remaining at 37° C. Human ([2]; 0 min): 100.0%; Whole Blood Stability % Remaining at 37° C. Human ([2]; 30 min): 73.5%; Whole Blood Stability % Remaining at 37° C. Human ([2]; 60 min): 40.8%; IC50 (KP4): < 0.01 µM
CN(C)C(=O)[C@H]1Cc2c([nH]c3ccccc23)[C@H](c2ccc(C(=O)OC(C)(C)C)cc2)N1C(=O)CCl [Example 21],,1580,170,90,64,
COC(=O)[C@H]1Cc2c([nH]c3ccccc23)[C@H](c2ccc(C(=O)OC[C@]34C[C@H]5C[C@H](C[C@H](C5)C3)C4)cc2)N1C(=O)CCl [Example 6],,3760,146,87,55,
COC(=O)[C@H]1Cc2c([nH]c3ccccc23)[C@H](c2ccc(C(=O)N3CCOCC3)cc2)N1C(=O)CCl [Example 26],,3970,339,,52,
COC(=O)[C@H]1Cc2c([nH]c3ccccc23)[C@H](c2ccc(C(=O)OCC3CC3)cc2)N1C(=O)CCl [Example 75],28,1290,,,,
CNC(=O)c1ccc([C@H]2c3[nH]c4ccccc4c3C[C@H](C(=O)OC)N2C(=O)CCl)cc1 [Example 7],,,687,273,119,
COC(=O)[C@H]1Cc2c([nH]c3ccccc23)[C@H](c2ccc(C(=O)NC(C)(C)C)cc2)N1C(=O)CCl [Example 9],,2270,69,32,12,
COC(=O)[C@H]1Cc2c([nH]c3ccccc23)[C@H](c2ccc(C(=O)NC(C(=O)O)C(C)(C)C)cc2)N1C(=O)CCl (stereo partly shown) [Example 10],,> 30000,15300,4410,1590,
COC(=O)c1ccc([C@H]2c3[nH]c4ccccc4c3C[C@H](C)N2C(=O)CCl)cc1 [Example 77],74,890,,,,
COC(=O)[C@H]1Cc2c([nH]c3ccccc23)[C@H](c2ccc(C(=O)N(C)C)cc2)N1C(=O)CCl [Example 8],,,250,143,77,
COC(=O)[C@H]1Cc2c([nH]c3ccccc23)[C@H](c2ccc(C(=O)NCC3CC3)cc2)N1C(=O)CCl [Example 81],73,2660,,,,
COC(=O)[C@H]1Cc2c([nH]c3ccc(Br)cc23)[C@H](c2ccc(C(=O)OCC3CC3)cc2)N1C(=O)CCl [Example 87],22,460,,,,
COC(=O)[C@H]1Cc2c([nH]c3ccccc23)[C@H](c2ccc(S(=O)(=O)N3CCC(O)CC3)cc2)N1C(=O)CCl [Example 35],,4150,313,,117,
CC(C)(C)OC(=O)[C@H]1Cc2c([nH]c3ccccc23)[C@H](c2ccc([N+](=O)[O-])cc2)N1C(=O)CCl [Example 11],,,327,135,91,
[2H]C([2H])([2H])OC(=O)[C@H]1Cc2c([nH]c3ccccc23)[C@H](c2ccc(C(=O)OC)cc2)N1C(=O)CCl [CC],118,1680,,,,Whole Blood Stability % Remaining at 37° C. Mouse ([1]; 0 min): 100.0%; Whole Blood Stability % Remaining at 37° C. Mouse ([1]; 30 min): 0.0%; Whole Blood Stability % Remaining at 37° C. Mouse ([1]; 60 min): 0.0%; Whole Blood Stability % Remaining at 37° C. Human ([2]; 0 min): 100.0%; Whole Blood Stability % Remaining at 37° C. Human ([2]; 30 min): 63.8%; Whole Blood Stability % Remaining at 37° C. Human ([2]; 60 min): 33.5%; IC50 (KP4): < 0.01 µM
CC(C)OC(=O)[C@H]1Cc2c([nH]c3ccccc23)[C@H](c2ccc(C(=O)OC(C)(C)C)cc2)N1C(=O)CCl [Example 20],,820,149,75,37,
COC(=O)[C@H]1Cc2c([nH]c3ccccc23)[C@H](c2ccc(C(=O)NCCN3CCOCC3)cc2)N1C(=O)CCl [Example 27],,9410,1410,,466,
COC(=O)[C@H]1Cc2c([nH]c3ccccc23)[C@H](c2ccc(C(=O)OCC34CC(F)(C3)C4)cc2)N1C(=O)CCl [Compound 76],35,1110,,,,
COC(=O)c1ccc([C@H]2c3[nH]c4ccc(Br)cc4c3C[C@H](C(=O)OC)N2C(=O)CCl)cc1 [Example 88],30,460,,,,
COC(=O)c1ccc([C@H]2c3[nH]c4ccccc4c3C[C@H](C(=O)OC(C)(C)C)N2C(=O)CCl)cc1 [Example 2],,,236,153,60,
C=CCOC(=O)c1ccc([C@H]2c3[nH]c4ccccc4c3C[C@H](C(=O)OC)N2C(=O)CCl)cc1 [Example 74],107,6560,,,,
COC(=O)[C@H]1Cc2c([nH]c3ccccc23)[C@H](c2ccc(S(=O)(=O)N3CC(O)C3)cc2)N1C(=O)CCl [Example 37],,5460,630,,279,
[2H]C([2H])(Cl)C(=O)N1[C@@H](c2ccc(C(=O)OC)cc2)c2[nH]c3ccccc3c2C[C@@H]1C(=O)OC [Example 90],132,1480,,,,
[2H]C([2H])([2H])OC(=O)[C@H]1Cc2c([nH]c3ccccc23)[C@H](c2ccc(C(=O)OC(C)(C)C)cc2)N1C(=O)CCl [CA],23,470,,,,Whole Blood Stability % Remaining at 37° C. Mouse ([1]; 0 min): 100.0%; Whole Blood Stability % Remaining at 37° C. Mouse ([1]; 30 min): 80.8%; Whole Blood Stability % Remaining at 37° C. Mouse ([1]; 60 min): 33.2%; Whole Blood Stability % Remaining at 37° C. Human ([2]; 0 min): 100.0%; Whole Blood Stability % Remaining at 37° C. Human ([2]; 30 min): 86.9%; Whole Blood Stability % Remaining at 37° C. Human ([2]; 60 min): 48.9%; IC50 (KP4): < 0.01 µM
COC(=O)[C@H]1Cc2c([nH]c3ccccc23)[C@H](c2ccc(C(=O)OCC3CCC3)cc2)N1C(=O)CCl [Example 85],29,500,,,,
